Experiment: Localised pain and erythema associated with intradermal injection of formulations
Assay type: in vivo, human
Description: A study was conducted to evaluate localised pain and erythema associated with intradermal injection of medicaments manufactured in accordance with the invention and the pain and erythema associated with control injections of prior art compositions.
Experimental injectable solutions were prepared as described above.
Briefly, a volume of 100 μL of each formulation described above was injected intradermally into the inner aspect of the upper arms of a volunteer. In addition to the DS11 control described above, a solution of the known local anaesthetic lignocaine was also used as a further control. The pain on injection and erythema were categorised by the volunteer and a clinician.
Both the volunteer and the clinician undertook these evaluations. The extent of pain or erythema associated with the different formulations used was rated based upon the following categories (listed in ascending severity): […]

[1] = Volunteer 1, 100 μL intradermal, inner aspect of upper arm
[2] = Volunteer 2, 100 μL intradermal, inner aspect of upper arm

Pain (in vivo) | Molecule | Erythema (Table 4, summary of Table 3) | Pain (Table 4, summary of Table 3) | Erythema [1] | Pain [1] | Erythema [2] | Pain [2]
– | CCN(CC)CC(=O)Nc1c(C)cccc1C [Lignocaine, lignocaine] | Marked | Marked | Marked | Marked | Marked | Marked
None | Glucose | – | – | – | – | – | –

Reference: patent US7691816B2, “Pharmaceutical compositions” (Renovo Ltd., priority 2005, dated 2010)
